Experimental findings from patent publication US20250120927A1, “CNDP2 MODULATORS AND METHODS FOR THEIR USE” (Metabolon Inc., priority 2023, published 2025) are described below.

The structures appear in SMILES notation. Where a name gives a salt, the structure may show the parent alone.

Chain of CNDP2 (Q96KP4 whole entry): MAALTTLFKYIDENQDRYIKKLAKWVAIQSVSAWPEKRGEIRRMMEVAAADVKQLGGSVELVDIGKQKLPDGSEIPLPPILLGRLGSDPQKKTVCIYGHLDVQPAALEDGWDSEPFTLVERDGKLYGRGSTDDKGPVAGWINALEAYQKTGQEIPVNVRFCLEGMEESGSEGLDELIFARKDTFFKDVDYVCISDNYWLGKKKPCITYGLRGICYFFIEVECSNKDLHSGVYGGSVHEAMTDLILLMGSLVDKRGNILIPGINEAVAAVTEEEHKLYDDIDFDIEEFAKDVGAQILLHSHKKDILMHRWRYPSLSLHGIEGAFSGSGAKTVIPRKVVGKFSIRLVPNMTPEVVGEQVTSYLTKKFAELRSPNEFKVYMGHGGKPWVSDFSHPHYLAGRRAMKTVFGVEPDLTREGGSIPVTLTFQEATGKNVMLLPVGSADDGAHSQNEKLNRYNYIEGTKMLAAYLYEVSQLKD

The first experiment addresses CNDP2 (Homo sapiens (Human), UniProt Q96KP4). As to the kind of experiment: CNDP2 enzyme inhibition assay (Met-His hydrolysis, free histidine by o-phthaldialdehyde fluorescence), dose-response. It counts as biochemical. The note with it: 50 nM purified CNDP2 (Sino Biological), 1 mM Met-His substrate, 30 minutes at 37° C.; TABLE 1. On the procedure:
To identify optimal conditions for identifying novel inhibitors of CNDP2, enzyme assays were performed with varied sources of purified enzyme, concentrations of enzyme, peptide substrates, concentrations of peptide substrates and metal cofactors. […] The reaction mixture was incubated for 30 minutes at 37° C. before it was quenched with an equal volume of 1% TCA. Free histidine was quantified after derivatization with a fluorophore (o-phthaldialdehyde from Sigma-Aldrich, excitation 340 nm, emission 460 nm). The reaction was conducted in an automation-friendly format to meet future screening throughput demands. A histidine titration standard curve was also included to enable conversion of fluorescence signal to molar concentration of histidine released by the hydrolysis reaction and to ensure the linearity of the fluorescence signal vs. free histidine.
Compounds of Formula (I) disclosed herein were screened for potency in inhibiting CNDP2 enzyme activity in a dose-response experiment. Bestatin was included with each batch of test molecules as a benchmark for assay quality control.
The molecule `N[C@H](Cc1ccccc1)[C@H](O)C(=O)NC(C(=O)O)c1ccccc1` (stereo partly drawn) [Compound 3, 2-[[(2S,3R)-3-amino-2-hydroxy-4-phenyl-butanoyl]amino]-2-phenyl-acetic acid] had an IC50 not below 1000 nM.

Regarding `N[C@H](Cc1ccccc1)[C@H](O)C(=O)N[C@H](C(=O)NO)c1cccc(OC(F)(F)F)c1` [Compound 53], the IC50 fell in the range of 100 to 1000 nM.

Consider `N[C@H](Cc1ccccc1)[C@H](O)C(=O)N[C@H](C(=O)NO)c1cccc(OC(F)(F)F)c1` [Compound 52], for which the half-maximal inhibitory concentration (IC50) is not below 1000 nM.

Turning to `N[C@H](Cc1ccccc1)[C@H](O)C(=O)NC(CC1CC(F)(F)C1)C(=O)O` (stereo partly drawn) [Compound 22, 2-[[(2S,3R)-3-amino-2-hydroxy-4-phenyl-butanoyl]amino]-3-(3,3-difluorocyclobutyl)propanoic acid], the IC50 is not below 1000 nM.

With `COc1cccc(C(NC(=O)[C@@H](O)[C@H](N)Cc2ccccc2)C(=O)O)c1` (stereo partly shown) [Compound 32], the IC50 was not below 1000 nM.

Molecule `CS(=O)(=O)NC(=O)C(NC(=O)[C@@H](O)[C@H](N)Cc1ccccc1)c1cccc(C(F)(F)F)c1` (stereo partly shown) [Compound 55] displayed an IC50 not below 1000 nM.

Molecule `CC1(C)CC(C(NC(=O)[C@@H](O)[C@H](N)Cc2ccccc2)C(=O)O)CCO1` (stereo partly shown) [Compound 38] came in with an IC50 not below 1000 nM.

On to `NC(=O)[C@@H](NC(=O)[C@@H](O)[C@H](N)Cc1ccccc1)c1cccc(OC(F)(F)F)c1` [Compound 44], for which the IC50 was not below 1000 nM.

`N[C@H](Cc1ccccc1)[C@H](O)C(=O)N[C@H](C(=O)O)c1cccc(C(F)(F)F)c1` [Compound 36]: the IC50 is less than 100 nM.

`N[C@H](Cc1ccccc1OC(F)(F)F)[C@H](O)C(=O)N[C@H](C(=O)O)c1cccc(OC(F)(F)F)c1` [Compound 61]: the IC50 lay within 100 to 1000 nM.

In turn, `N[C@H](Cc1ccccc1)[C@H](O)C(=O)N[C@@H](Cc1ccccc1Br)C(=O)O` [Compound 26, 2-[[(2S,3R)-3-amino-2-hydroxy-4-phenyl-butanoyl]amino]-3-(2-bromophenyl)propanoic acid] yielded an IC50 not below 1000 nM.

On to `N[C@H](Cc1ccccc1)[C@H](O)C(=O)NC(C(=O)O)c1ccccc1C(F)(F)F` (stereo partly shown) [Compound 27], for which the IC50 was not below 1000 nM.

Regarding `N[C@H](Cc1ccccc1)[C@H](O)C(=O)N[C@H](C(=O)O)C1CCC1` [Compound 20, (2S)-2-[[(2S,3R)-3-amino-2-hydroxy-4-phenyl-butanoyl]amino]-2-cyclobutyl-acetic acid], the IC50 is not below 1000 nM.

`CC(C)C[C@H](NC(=O)[C@@H](O)[C@H](N)Cc1ccccc1)C(=O)O` [bestatin, reference compound]: the IC50 is not below 1000 nM.

Take `N[C@H](Cc1ccccc1)[C@H](O)C(=O)NC(c1cccc(C(F)(F)F)c1)c1n[nH]c(=O)o1` (stereo partly shown) [Compound 56]: the IC50 was less than 100 nM.

The experiment is the same for the next values; noted with them: 50 nM purified CNDP2 (Sino Biological), 1 mM Met-His substrate, 30 minutes at 37° C.; TABLE 2.
As for `N[C@H](Cc1ccccc1)[C@H](O)C(=O)N[C@H](C(=O)O)c1ccc(F)c(OC(F)(F)F)c1F` [Compound 114, (S)-2-((2S,3R)-3-amino-2-hydroxy-4-phenylbutanamido)-2-(2,4-difluoro-3-(trifluoromethoxy)phenyl)acetic acid hydrochloride], the IC50 was less than 100 nM.

For the molecule `N[C@H](Cc1ccccc1)[C@H](O)C(=O)N[C@H](C(=O)O)c1ccc(F)c(C(F)(F)F)c1` [Compound 95, (S)-2-((2S,3R)-3-amino-2-hydroxy-4-phenylbutanamido)-2-(4-fluoro-3-(trifluoromethyl)phenyl)acetic acid], the IC50 was not below 1000 nM.

`N[C@H](Cc1ccccc1)[C@H](O)C(=O)N[C@H](C(=O)O)c1cc(C(F)(F)F)ccc1C(F)(F)F` [Compound 81]: the IC50 was not below 1000 nM.

The molecule `N[C@H](Cc1ccccc1)[C@H](O)C(=O)N[C@H](C(=O)O)c1cccc(C(F)(F)F)c1F` [Compound 91, (S)-2-((2S,3R)-3-amino-2-hydroxy-4-phenylbutanamido)-2-(2-fluoro-3-(trifluoromethyl)phenyl)acetic acid] returned an IC50 of 100 to 1000 nM.

In turn, `N[C@H](Cc1ccccc1)[C@H](O)C(=O)N[C@@H](Cc1ccc(F)c(OC(F)(F)F)c1)C(=O)O` [Compound 99] displayed an IC50 not below 1000 nM.

In turn, `N[C@H](Cc1ccccc1)[C@H](O)C(=O)N[C@@H](C(=O)O)c1ccc(Cl)c(OC(F)(F)F)c1` [Compound 106, (R)-2-((2S,3R)-3-amino-2-hydroxy-4-phenylbutanamido)-2-(4-chloro-3-(trifluoromethoxy)phenyl)acetic acid hydrochloride] gave an IC50 not below 1000 nM.

On to `N[C@H](Cc1ccc(Cl)cc1)[C@H](O)C(=O)N[C@@H](C(=O)O)c1cccc(OC(F)(F)F)c1` [Compound 128, (R)-2-((2S,3R)-3-amino-4-(4-chlorophenyl)-2-hydroxybutanamido)-2-(3-(trifluoromethoxy)phenyl)acetic acid], for which the IC50 was not below 1000 nM.

For the molecule `N[C@H](Cc1ccccc1)[C@H](O)C(=O)N[C@@H](C(=O)O)c1cc(F)cc(C(F)(F)F)c1` [Compound 92, (R)-2-((2S,3R)-3-amino-2-hydroxy-4-phenylbutanamido)-2-(5-fluoro-3-(trifluoromethyl)phenyl)acetic acid], the half-maximal inhibitory concentration (IC50) was less than 100 nM.

Regarding `N[C@H](Cc1ccccc1)[C@H](O)C(=O)N[C@H](C(=O)O)c1cc(F)cc(C(F)(F)F)c1` [Compound 93, (S)-2-((2S,3R)-3-amino-2-hydroxy-4-phenylbutanamido)-2-(5-fluoro-3-(trifluoromethyl)phenyl)acetic acid], the IC50 was not below 1000 nM.

`N[C@H](Cc1ccccc1)[C@H](O)C(=O)NC(C(=O)O)c1cc(C(F)(F)F)cc(C(F)(F)F)c1` (stereo partly shown) [Compound 66] came in with an IC50 not below 1000 nM.

As to `N[C@H](Cc1ccccc1)[C@H](O)C(=O)N[C@@H](C(=O)O)c1cc(C(F)(F)F)ccc1C(F)(F)F` [Compound 80], the IC50 is not below 1000 nM.

`C[C@@](NC(=O)[C@@H](O)[C@H](N)Cc1ccccc1)(C(=O)O)c1cccc(C(F)(F)F)c1` [Compound 85, (S)-2-((2S,3R)-3-amino-2-hydroxy-4-phenylbutanamido)-2-(3-(trifluoromethyl)phenyl)propanoic acid] registered an IC50 not below 1000 nM.

On to `N[C@H](Cc1ccc(Br)cc1)[C@H](O)C(=O)N[C@H](C(=O)O)c1cccc(OC(F)(F)F)c1` [Compound 129, (S)-2-((2S,3R)-3-amino-4-(4-bromophenyl)-2-hydroxybutanamido)-2-(3-(trifluoromethoxy)phenyl)acetic acid], for which the IC50 was not below 1000 nM.

`N[C@H](Cc1ccc(C(F)(F)F)cc1)[C@H](O)C(=O)N[C@@H](C(=O)O)c1cccc(OC(F)(F)F)c1` [Compound 134] gave a 50% inhibitory concentration (IC50) not below 1000 nM.

`N[C@H](Cc1ccccc1)[C@H](O)C(=O)N[C@@H](C(=O)O)c1ccc(F)c(C(F)(F)F)c1F` [Compound 96, (R)-2-((2S,3R)-3-amino-2-hydroxy-4-phenylbutanamido)-2-(2,4-difluoro-3-(trifluoromethyl)phenyl)acetic acid] yielded a concentration for half-maximal inhibition (IC50) of less than 100 nM.

As for `N[C@H](Cc1ccccc1)[C@H](O)C(=O)N[C@H](c1cccc(OC(F)(F)F)c1)c1n[nH]c(=O)o1` [Compound 74], the IC50 was not below 1000 nM.

In the case of `N[C@H](Cc1ccccc1)[C@H](O)C(=O)N[C@@H](Cc1ccc(OC(F)(F)F)cc1)C(=O)O` [Compound 117, (S)-2-((2S,3R)-3-amino-2-hydroxy-4-phenylbutanamido)-3-(4-(trifluoromethoxy)phenyl)propanoic acid], the concentration for half-maximal inhibition (IC50) is not below 1000 nM.

Molecule `N[C@H](Cc1ccccc1)[C@H](O)C(=O)N[C@H](C(=O)O)c1ccc(Br)c(OC(F)(F)F)c1` [Compound 111, (S)-2-((2S,3R)-3-amino-2-hydroxy-4-phenylbutanamido)-2-(4-bromo-3-(trifluoromethoxy)phenyl)acetic acid hydrochloride] registered an IC50 of less than 100 nM.

Take `N[C@H](Cc1ccccc1)[C@H](O)C(=O)N[C@@H](C(=O)O)c1cccc(C(F)(F)F)c1F` [Compound 90, (R)-2-((2S,3R)-3-amino-2-hydroxy-4-phenylbutanamido)-2-(2-fluoro-3-(trifluoromethyl)phenyl)acetic acid]: the IC50 was less than 100 nM.

Regarding `N[C@H](Cc1ccccc1)[C@H](O)C(=O)N[C@@H](Cc1cc(F)c(OC(F)(F)F)c(F)c1)C(=O)O` [Compound 98], the IC50 was 100 to 1000 nM.

For the molecule `N[C@H](Cc1ccccc1)[C@H](O)C(=O)N[C@H](C(=O)O)c1cc(F)cc(OC(F)(F)F)c1` [Compound 103, (S)-2-((2S,3R)-3-amino-2-hydroxy-4-phenylbutanamido)-2-(3-fluoro-5-(trifluoromethoxy)phenyl)acetic acid], the IC50 was less than 100 nM.

`N[C@H](Cc1ccccc1)[C@H](O)C(=O)N[C@H](C(=O)O)c1cc(Cl)cc(OC(F)(F)F)c1` [Compound 109, (S)-2-((2S,3R)-3-amino-2-hydroxy-4-phenylbutanamido)-2-(3-chloro-5-(trifluoromethoxy)phenyl)acetic acid hydrochloride]: the IC50 is less than 100 nM.

Molecule `N[C@H](Cc1ccc(C(F)(F)F)cc1)[C@H](O)C(=O)N[C@@H](C(=O)O)c1cccc(OC(F)(F)F)c1` [Compound 132, (R)-2-((2S,3R)-3-amino-2-hydroxy-4-(4-(trifluoromethyl)phenyl)butanamido)-2-(3-(trifluoromethoxy)phenyl)acetic acid] gave a half-maximal inhibitory concentration (IC50) of 100 to 1000 nM.

Molecule `N[C@H](Cc1ccccc1)[C@H](O)C(=O)N[C@@H](CC1CCC(F)(F)CC1)c1n[nH]c(=O)o1` [Compound 101] yielded an IC50 not below 1000 nM.

Staying with this experiment, now noted: bestatin 10 microM down to 5 pM; consistent across run days.
`CC(C)C[C@H](NC(=O)[C@@H](O)[C@H](N)Cc1ccccc1)C(=O)O` [bestatin, reference compound] yielded an IC50 of approximately 2000 nM.
